# According to paper PMC5218480 (PLoS ONE, 2017):
# System: MV-4-11 cells
# Experiment: Gene expression microarray analysis (Affymetrix PrimeView) and GSEA
# Type: cell-based, human
# Set-up: RFU PODN (11730768_x_at) / Fold change /veh PODN (11730768_x_at) / RFU LINC00158 (11744669_a_at) / Fold change /veh LINC00158 (11744669_a_at) / RFU DUSP10 (11751237_a_at) / Fold change /veh DUSP10 (11751237_a_at) / RFU ID3 (11757404_x_at) / Fold change /veh ID3 (11757404_x_at) / RFU PLEKHG5 (11737974_s_at) / Fold change /veh PLEKHG5 (11737974_s_at) / RFU LRRC4B (11730491_at) / Fold change /veh LRRC4B (11730491_at) / RFU GIMAP4 (11747438_a_at) / Fold change /veh GIMAP4 (11747438_a_at) / RFU KRT8 (11758183_x_at) / Fold change /veh KRT8 (11758183_x_at) / RFU CNN1 (11734310_a_at) / Fold change /veh CNN1 (11734310_a_at) / RFU VPS37D (11726825_at) / Fold change /veh VPS37D (11726825_at) / RFU C10orf10 (11716522_x_at) / Fold change /veh C10orf10 (11716522_x_at) / RFU KIR2DL2 /// KIR2DL4 /// KIR2DL5A /// KIR2DL5B /// KIR2DS1 /// KIR2DS2 /// KIR2DS3 /// KIR2DS4 /// KIR3DL3 /// KIR3DL3 /// KIR3DS1 (11738374_at) / Fold change /veh KIR2DL2 /// KIR2DL4 /// KIR2DL5A /// KIR2DL5B /// KIR2DS1 /// KIR2DS2 /// KIR2DS3 /// KIR2DS4 /// KIR3DL3 /// KIR3DL3 /// KIR3DS1 (11738374_at) / RFU C1QL1 (11718748_at) / Fold change /veh C1QL1 (11718748_at) / RFU TMPRSS4 (11747572_a_at) / Fold change /veh TMPRSS4 (11747572_a_at) / RFU HAMP (11756126_x_at) / Fold change /veh HAMP (11756126_x_at) / RFU RNFT2 (11725882_a_at) / Fold change /veh RNFT2 (11725882_a_at) / RFU NR4A2 (11747474_a_at) / Fold change /veh NR4A2 (11747474_a_at) / RFU ABCC12 (11746883_a_at) / Fold change /veh ABCC12 (11746883_a_at) / RFU TMEM136 (11760407_x_at) / Fold change /veh TMEM136 (11760407_x_at) / RFU CLDN22 /// WWC2 (11732394_at) / Fold change /veh CLDN22 /// WWC2 (11732394_at) / RFU HLA-DPB1 (11760878_x_at) / Fold change /veh HLA-DPB1 (11760878_x_at) / RFU SPINT1 (11716480_a_at) / Fold change /veh SPINT1 (11716480_a_at) / RFU GAP43 (11754022_s_at) / Fold change /veh GAP43 (11754022_s_at) / RFU A4GNT (11735810_at) / Fold change /veh A4GNT (11735810_at) / RFU PRB3 (11715151_x_at) / Fold change /veh PRB3 (11715151_x_at) / RFU TUBB4B (11761932_at) / Fold change /veh TUBB4B (11761932_at) / RFU CAPN14 (11732068_a_at) / Fold change /veh CAPN14 (11732068_a_at) / RFU TMCC2 (11721928_a_at) / Fold change /veh TMCC2 (11721928_a_at) / RFU IRGQ (11745062_a_at) / Fold change /veh IRGQ (11745062_a_at) / RFU FAM174B (11720279_a_at) / Fold change /veh FAM174B (11720279_a_at) / RFU TMPRSS4 (11748680_a_at) / Fold change /veh TMPRSS4 (11748680_a_at) / RFU FAM212B (11763350_a_at) / Fold change /veh FAM212B (11763350_a_at) / RFU PLEKHG5 (11743358_a_at) / Fold change /veh PLEKHG5 (11743358_a_at) / RFU ZSCAN30 (11745921_a_at) / Fold change /veh ZSCAN30 (11745921_a_at) / RFU CMKLR1 (11741424_a_at) / Fold change /veh CMKLR1 (11741424_a_at) / RFU LOC101060620 /// MAPK8IP1 (11723275_at) / Fold change /veh LOC101060620 /// MAPK8IP1 (11723275_at) / RFU SPTSSB (11747773_x_at) / Fold change /veh SPTSSB (11747773_x_at) / RFU PRSS12 (11739890_at) / Fold change /veh PRSS12 (11739890_at) / RFU BIN1 (11741810_x_at) / Fold change /veh BIN1 (11741810_x_at) / RFU WNT11 (11732464_a_at) / Fold change /veh WNT11 (11732464_a_at) / RFU C10orf10 (11716521_a_at) / Fold change /veh C10orf10 (11716521_a_at) / RFU C5orf56 (11738089_at) / Fold change /veh C5orf56 (11738089_at) / RFU CYB561 (11721691_x_at) / Fold change /veh CYB561 (11721691_x_at) / RFU ANKRD19P (11752326_a_at) / Fold change /veh ANKRD19P (11752326_a_at) / RFU OR2T12 /// OR2T33 /// OR2T8 (11738714_s_at) / Fold change /veh OR2T12 /// OR2T33 /// OR2T8 (11738714_s_at) / RFU VCAN (11748164_a_at) / Fold change /veh VCAN (11748164_a_at) / RFU JSRP1 (11732532_at) / Fold change /veh JSRP1 (11732532_at) / RFU KRTAP10-11 (11738290_x_at) / Fold change /veh KRTAP10-11 (11738290_x_at) / RFU MYO3A (11730013_a_at) / Fold change /veh MYO3A (11730013_a_at) / RFU EBF3 (11725865_a_at) / Fold change /veh EBF3 (11725865_a_at) / RFU CAMK2N1 (11719241_x_at) / Fold change /veh CAMK2N1 (11719241_x_at) / RFU C5orf56 (11738088_a_at) / Fold change /veh C5orf56 (11738088_a_at) / RFU OLFML3 (11715873_a_at) / Fold change /veh OLFML3 (11715873_a_at) / RFU LOC100653217 /// NTM (11731650_a_at) / Fold change /veh LOC100653217 /// NTM (11731650_a_at) / RFU MAPK11 (11762145_a_at) / Fold change /veh MAPK11 (11762145_a_at) / RFU FIZ1 (11724087_x_at) / Fold change /veh FIZ1 (11724087_x_at) / RFU OASL (11726364_x_at) / Fold change /veh OASL (11726364_x_at) / RFU SOX15 (11748057_x_at) / Fold change /veh SOX15 (11748057_x_at) / RFU CD79A (11719716_a_at) / Fold change /veh CD79A (11719716_a_at) / RFU HIST1H1D (11736915_at) / Fold change /veh HIST1H1D (11736915_at) / RFU CASKIN2 (11723855_a_at) / Fold change /veh CASKIN2 (11723855_a_at) / RFU LOC730098 (11760151_x_at) / Fold change /veh LOC730098 (11760151_x_at) / RFU OR4N2 (11742367_at) / Fold change /veh OR4N2 (11742367_at) / RFU PRRT2 (11749266_a_at) / Fold change /veh PRRT2 (11749266_a_at) / RFU SNX32 (11753110_a_at) / Fold change /veh SNX32 (11753110_a_at) / RFU CDHR5 (11726645_a_at) / Fold change /veh CDHR5 (11726645_a_at) / RFU RCAN1 (11760418_a_at) / Fold change /veh RCAN1 (11760418_a_at) / RFU FAM167A (11723789_a_at) / Fold change /veh FAM167A (11723789_a_at) / RFU FAM26E (11764081_at) / Fold change /veh FAM26E (11764081_at) / RFU ISYNA1 (11749810_s_at) / Fold change /veh ISYNA1 (11749810_s_at) / RFU ACY1 (11761880_at) / Fold change /veh ACY1 (11761880_at) / RFU 11764098_at / Fold change /veh 11764098_at / RFU SAMD14 (11745864_x_at) / Fold change /veh SAMD14 (11745864_x_at) / RFU NPB (11741838_a_at) / Fold change /veh NPB (11741838_a_at) / RFU TMPRSS6 (11731388_a_at) / Fold change /veh TMPRSS6 (11731388_a_at) / RFU KRTAP10-2 (11738614_at) / Fold change /veh KRTAP10-2 (11738614_at) / RFU ARHGAP8 /// PRR5-ARHGAP8 (11727945_x_at) / Fold change /veh ARHGAP8 /// PRR5-ARHGAP8 (11727945_x_at) / RFU KRTAP5-7 /// NADSYN1 (11734609_at) / Fold change /veh KRTAP5-7 /// NADSYN1 (11734609_at) / RFU RASL12 (11751679_a_at) / Fold change /veh RASL12 (11751679_a_at) / RFU CDKN2B (11736163_a_at) / Fold change /veh CDKN2B (11736163_a_at) / RFU PRF1 (11729649_at) / Fold change /veh PRF1 (11729649_at) / RFU, ZNF638 /// ZNF638-IT1 / Fold change vs veh, ZNF638 /// ZNF638-IT1 / RFU, PANK3 / Fold change vs veh, PANK3 / RFU, SH3YL1 / Fold change vs veh, SH3YL1 / RFU, ZEB2 / Fold change vs veh, ZEB2 / RFU, NRIP1 / Fold change vs veh, NRIP1 / RFU, PTTG1IP / Fold change vs veh, PTTG1IP / RFU, CAPN2 / Fold change vs veh, CAPN2 / RFU, MED14 / Fold change vs veh, MED14 / RFU, SNORA58 / Fold change vs veh, SNORA58 / RFU, C1orf63 / Fold change vs veh, C1orf63 / RFU, LRRFIP1 / Fold change vs veh, LRRFIP1 / RFU, NDUFAF7 / Fold change vs veh, NDUFAF7 / RFU, SLC12A2 / Fold change vs veh, SLC12A2 / RFU, IBTK / Fold change vs veh, IBTK / RFU, ESF1 / Fold change vs veh, ESF1 / Fold change vs veh, TMEM50B / RFU, TAOK1 / Fold change vs veh, TAOK1 / RFU, ACBD3 / Fold change vs veh, ACBD3 / RFU, TMA16 / Fold change vs veh, TMA16 / RFU, RWDD3 / Fold change vs veh, RWDD3 / RFU, BCAT1 / Fold change vs veh, BCAT1 / RFU, EDEM3 / Fold change vs veh, EDEM3 / RFU, TMEM33 / Fold change vs veh, TMEM33 / RFU, WDR75 / Fold change vs veh, WDR75 / RFU, AHCTF1 / Fold change vs veh, AHCTF1 / RFU, TFRC / Fold change vs veh, TFRC / RFU, ZDHHC17 / Fold change vs veh, ZDHHC17 / RFU, NOM1 / Fold change vs veh, NOM1 / RFU, ARL8B / Fold change vs veh, ARL8B / RFU, ZBTB11 / Fold change vs veh, ZBTB11 / RFU, TAMM41 / Fold change vs veh, TAMM41 / RFU, KIAA1704 /// LOC100996395 / Fold change vs veh, KIAA1704 /// LOC100996395 / RFU, ING1 / Fold change vs veh, ING1 / RFU, TRMT61B / Fold change vs veh, TRMT61B / RFU, FUBP3 / Fold change vs veh, FUBP3 / RFU, TP53 / Fold change vs veh, TP53 / RFU, TNKS2 / Fold change vs veh, TNKS2 / RFU, ZFP14 / Fold change vs veh, ZFP14 / RFU, ACTR2 / Fold change vs veh, ACTR2 / RFU, PPP3R1 / Fold change vs veh, PPP3R1 / RFU, PIK3R1 / Fold change vs veh, PIK3R1 / RFU, HNRNPA1 / Fold change vs veh, HNRNPA1 / RFU, RNF170 / Fold change vs veh, RNF170 / RFU, ZNF28 / Fold change vs veh, ZNF28 / RFU, RNGTT / Fold change vs veh, RNGTT / RFU, OGT / Fold change vs veh, OGT / RFU, BRD1 / Fold change vs veh, BRD1 / RFU, MARS / Fold change vs veh, MARS / RFU, ZNF655 / Fold change vs veh, ZNF655 / RFU, FAHD1 / Fold change vs veh, FAHD1 / RFU, BDP1 / Fold change vs veh, BDP1 / RFU, LRRCC1 / Fold change vs veh, LRRCC1 / RFU, ARID1A / Fold change vs veh, ARID1A / RFU, ZNF146 / Fold change vs veh, ZNF146 / RFU, ZNF330 / Fold change vs veh, ZNF330 / RFU, GPN3 / Fold change vs veh, GPN3 / RFU, C9orf123 / Fold change vs veh, C9orf123 / RFU, N4BP2L2 / Fold change vs veh, N4BP2L2 / RFU, ARFIP1 / Fold change vs veh, ARFIP1 / RFU, FAM179B / Fold change vs veh, FAM179B / RFU, BCL10 / Fold change vs veh, BCL10 / RFU, UHRF1BP1L / Fold change vs veh, UHRF1BP1L / RFU, BET1 / Fold change vs veh, BET1 / RFU, CNOT2 / Fold change vs veh, CNOT2 / RFU, ZNF268 / Fold change vs veh, ZNF268 / Fold change vs veh, ZNF507 / RFU, DGCR2 / Fold change vs veh, DGCR2 / RFU, WDSUB1 / Fold change vs veh, WDSUB1 / Fold change vs veh, HSP90B1 /// MIR3652 / RFU, ADSS / Fold change vs veh, ADSS / RFU, GK / Fold change vs veh, GK / RFU, ZNF148 / Fold change vs veh, ZNF148 / RFU, TAF9 / Fold change vs veh, TAF9 / RFU, SLC1A5 / Fold change vs veh, SLC1A5 / RFU, SLMO2 / Fold change vs veh, SLMO2 / RFU, ABCC4 / Fold change vs veh, ABCC4 / RFU, LOC101060439 /// RAP1B / Fold change vs veh, LOC101060439 /// RAP1B / RFU, RFX7 / Fold change vs veh, RFX7 / RFU, GTPBP10 / Fold change vs veh, GTPBP10 / RFU, CNEP1R1 / Fold change vs veh, CNEP1R1 / RFU, BIVM-ERCC5 /// ERCC5 / Fold change vs veh, BIVM-ERCC5 /// ERCC5 / RFU, ILF3 / Fold change vs veh, ILF3 / RFU 11762660_at / Fold change /veh 11762660_at / RFU VCAN (11757783_s_at) / Fold change /veh VCAN (11757783_s_at) / RFU DDX43 (11728927_at) / Fold change /veh DDX43 (11728927_at) / RFU KRT8 (11758188_x_at) / Fold change /veh KRT8 (11758188_x_at) / RFU NKD1 (11759106_at) / Fold change /veh NKD1 (11759106_at) / RFU SRD5A1 (11742802_a_at) / Fold change /veh SRD5A1 (11742802_a_at) / RFU TPSAB1 /// TPSB2 (11721975_s_at) / Fold change /veh TPSAB1 /// TPSB2 (11721975_s_at) / RFU GSTM3 (11746129_a_at) / Fold change /veh GSTM3 (11746129_a_at) / RFU IL23R (11737362_x_at) / Fold change /veh IL23R (11737362_x_at) / RFU TMEM51 (11727254_a_at) / Fold change /veh TMEM51 (11727254_a_at) / RFU PIWIL2 (11732686_x_at) / Fold change /veh PIWIL2 (11732686_x_at) / RFU ORM1 (11744905_x_at) / Fold change /veh ORM1 (11744905_x_at) / RFU CCDC152 (11743942_at) / Fold change /veh CCDC152 (11743942_at) / RFU ECM1 (11717891_a_at) / Fold change /veh ECM1 (11717891_a_at) / RFU IL23R (11748794_a_at) / Fold change /veh IL23R (11748794_a_at) / RFU TNFAIP8L3 (11732012_x_at) / Fold change /veh TNFAIP8L3 (11732012_x_at) / RFU MBOAT4 (11741988_at) / Fold change /veh MBOAT4 (11741988_at) / RFU 11764193_at / Fold change /veh 11764193_at / RFU TMEM53 (11763286_at) / Fold change /veh TMEM53 (11763286_at) / RFU MAGEB2 (11727129_at) / Fold change /veh MAGEB2 (11727129_at) / RFU TMEM200A (11744735_a_at) / Fold change /veh TMEM200A (11744735_a_at) / RFU CCDC152 (11751479_a_at) / Fold change /veh CCDC152 (11751479_a_at) / RFU FAM211A (11726209_a_at) / Fold change /veh FAM211A (11726209_a_at) / RFU RGS16 (11746705_a_at) / Fold change /veh RGS16 (11746705_a_at) / RFU VCAN (11755009_s_at) / Fold change /veh VCAN (11755009_s_at) / RFU RHOB (11743442_s_at) / Fold change /veh RHOB (11743442_s_at) / RFU RGS16 (11720943_a_at) / Fold change /veh RGS16 (11720943_a_at) / RFU RGS16 (11720944_at) / Fold change /veh RGS16 (11720944_at) / RFU, VPS4B / Fold change vs veh, VPS4B / RFU, CREB1 / Fold change vs veh, CREB1 / RFU, DNAJC13 / Fold change vs veh, DNAJC13 / RFU, GNAQ / Fold change vs veh, GNAQ / RFU, CDK5R1 / Fold change vs veh, CDK5R1 / RFU, ZRANB3 / Fold change vs veh, ZRANB3 / RFU, CUL4A / Fold change vs veh, CUL4A / RFU, CCNY / Fold change vs veh, CCNY / RFU, UFL1 / Fold change vs veh, UFL1 / RFU, COG3 / Fold change vs veh, COG3 / RFU, DIAPH2 / Fold change vs veh, DIAPH2 / RFU, SKA2 / Fold change vs veh, SKA2 / RFU, AFF3 / Fold change vs veh, AFF3 / RFU, LMF1 / Fold change vs veh, LMF1 / RFU, IPO11 / Fold change vs veh, IPO11 / RFU, DFFB / Fold change vs veh, DFFB / RFU, FOXP1 / Fold change vs veh, FOXP1 / RFU, CARD8 / Fold change vs veh, CARD8 / RFU, STRN3 / Fold change vs veh, STRN3 / RFU, ADK / Fold change vs veh, ADK / RFU, RASSF2 / Fold change vs veh, RASSF2 / RFU, WIPF1 / Fold change vs veh, WIPF1 / RFU, LARP1B / Fold change vs veh, LARP1B / RFU, RASA1 / Fold change vs veh, RASA1 / RFU, RB1 / Fold change vs veh, RB1 / RFU, PPFIA1 / Fold change vs veh, PPFIA1 / RFU, MAT2A / Fold change vs veh, MAT2A / RFU, CCT5 / Fold change vs veh, CCT5 / RFU, WDR92 / Fold change vs veh, WDR92 / RFU, CUX1 / Fold change vs veh, CUX1 / RFU, TTC7A / Fold change vs veh, TTC7A / RFU, TMEM135 / Fold change vs veh, TMEM135 / RFU, DEPTOR / Fold change vs veh, DEPTOR / RFU, CPM / Fold change vs veh, CPM / RFU, DNAJB6 / Fold change vs veh, DNAJB6 / RFU, CACNA2D3 / Fold change vs veh, CACNA2D3 / RFU, DTX4 / Fold change vs veh, DTX4 / RFU, TFCP2 / Fold change vs veh, TFCP2 / RFU, GMCL1 /// GMCL1P1 / Fold change vs veh, GMCL1 /// GMCL1P1 / RFU, AEBP2 / Fold change vs veh, AEBP2 / RFU, SNHG1 /// SNORD22 /// SNORD25 /// SNORD26 /// SNORD27 /// SNORD28 /// SNORD29 /// SNORD31 / Fold change vs veh, SNHG1 /// SNORD22 /// SNORD25 /// SNORD26 /// SNORD27 /// SNORD28 /// SNORD29 /// SNORD31 / Fold change (Aza/veh), C12orf56 (ProbeSet 11735607_a_at) / Fold change (ACY-1035/veh), C12orf56 (ProbeSet 11735607_a_at) / Fold change (Aza/veh), FGFR1OP (ProbeSet 11751329_s_at) / Fold change (ACY-1035/veh), FGFR1OP (ProbeSet 11751329_s_at) / Fold change (Aza/veh), VPS36 (ProbeSet 11739960_a_at) / Fold change (ACY-1035/veh), VPS36 (ProbeSet 11739960_a_at) / RFU SYPL1 (11715823_x_at) / Fold change /veh SYPL1 (11715823_x_at) / RFU IGFBP7 (11715501_s_at) / Fold change /veh IGFBP7 (11715501_s_at) / RFU REEP3 (11722064_at) / Fold change /veh REEP3 (11722064_at) / RFU IGLL1 (11728026_x_at) / Fold change /veh IGLL1 (11728026_x_at): dose or concentration left out as unconfirmed
# Details: MV-4-11 cells, 48 hours
smiles,measurement,value
Nc1ccc(-c2cccs2)cc1NC(=O)c1ccc2c(c1)cc(C1CC1)n2CCN1CCOCC1 [ACY-1035],Fold change /veh GAP43 (11754022_s_at),0.88
